# Data taken from article PMC9609714, “Exploring Novel Pyridine Carboxamide Derivatives as Urease Inhibitors: Synthesis, Molecular Docking, Kinetic Studies and ADME Profile” (Pharmaceuticals, 2022).
# Like-named read-outs stand apart in the source and are kept apart here.
# Assays:
# [1] = biological target: T1, urease (Canavalia ensiformis, UniProt P07374); assay: biochemical
# Protocol: The indophenol method was adopted for the estimation of urease inhibition activity for synthesized compounds with minor modification. In the assay, the total volume was kept at 100 µL which was composed of 10 µL urease having a concentration of 5 U/mL, 40 µL of phosphate buffer (0.01mM K2HPO4+ EDTA + […]); pH was adjusted to 8.15 using 40 µL of phenol reagent (1%, phenol, and sodium nitroprusside) and alkali reagent. This alkali reagent was composed of 0.5% of sodium hydroxide and 0.1% of active chloride (NaOCl). For the determination of urease activity, the test compound and enzyme were incubated for 30 min at 37 °C in the assay buffer; then phenol/alkali reagent was added. All reactions were performed in 96 well plates in a triplicate manner. Absorbance was measured at a wavelength of 625 nm using the instrument FLUOstar® Omega (BMG LABTECH, Ortenberg, Germany). Initially, the percentage inhibition was estimated for the test compounds and compared with a standard inhibitor of urease (thioureas). […] GraphPad (PRISM 8.0, San Diego, CA, USA) was utilized for the calculations of IC50 values. The synthesized compounds were dissolved in absolute ethanol for the percentage inhibition assay whereas dilutions were prepared in deionized water by keeping the final concentration at up to 1%. The standard inhibitor (thioureas) was used as a positive control in the assay whereas 1% ethanol was employed as a negative control during the assay.
# [2] = biological target: T1, urease; assay: Enzyme kinetics study (Lineweaver–Burk plot) of urease inhibition; assay type: biochemical; details: compound 0.10-1.6 µM
# Excerpt: By calculating the Lineweaver–Burk plot, the competitive mode of inhibition was shown by the compound Rx-6.
# T1 sequence (P07374 whole entry, looked up): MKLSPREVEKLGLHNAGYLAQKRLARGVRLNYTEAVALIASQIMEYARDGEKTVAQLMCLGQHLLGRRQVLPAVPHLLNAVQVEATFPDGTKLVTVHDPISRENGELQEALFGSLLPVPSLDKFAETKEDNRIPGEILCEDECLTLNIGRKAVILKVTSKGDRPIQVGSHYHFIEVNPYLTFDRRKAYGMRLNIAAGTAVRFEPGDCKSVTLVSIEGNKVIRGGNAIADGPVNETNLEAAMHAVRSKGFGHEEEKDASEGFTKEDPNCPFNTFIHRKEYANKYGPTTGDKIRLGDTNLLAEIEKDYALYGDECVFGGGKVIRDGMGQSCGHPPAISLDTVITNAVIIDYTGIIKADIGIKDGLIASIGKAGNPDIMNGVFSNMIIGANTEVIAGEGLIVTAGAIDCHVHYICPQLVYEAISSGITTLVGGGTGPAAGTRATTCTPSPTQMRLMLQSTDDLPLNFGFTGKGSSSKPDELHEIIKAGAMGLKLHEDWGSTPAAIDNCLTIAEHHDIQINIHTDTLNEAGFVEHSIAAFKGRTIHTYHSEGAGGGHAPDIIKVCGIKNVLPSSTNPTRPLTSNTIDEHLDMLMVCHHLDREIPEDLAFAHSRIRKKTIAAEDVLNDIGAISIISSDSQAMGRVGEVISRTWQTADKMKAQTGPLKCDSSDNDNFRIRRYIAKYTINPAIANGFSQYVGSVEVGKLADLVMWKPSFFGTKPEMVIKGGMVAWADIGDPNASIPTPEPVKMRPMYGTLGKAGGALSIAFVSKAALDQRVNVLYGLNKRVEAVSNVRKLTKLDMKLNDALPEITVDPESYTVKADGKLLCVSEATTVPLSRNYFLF
SMILES,IC50 [1] [µM],melting point [°C],mode of inhibition (Lineweaver–Burk plot) [2],"IC50 ([1]; urease 5 U/mL, 30 min at 37 °C, pH 8.15, triplicate, read-out: IC50 ± SEM) [µM]"
"N/C(S)=N/N=C/c1ccccn1 [Rx-1, Pyridine-2-yl-methylene thiosemicarbazide]",3.23 ± 0.015,,,
"Cc1cccc(/C=N/NC(N)=S)n1 [Rx-2, 6-Methylpyridine-2-yl methylene hydrazine-1-carbothioamide]",6.41 ± 0.023,,,
"NC(=S)N/N=C/c1cccc(Br)n1 [Rx-3, 6-Bromopyridine-2-yl methylene hydrazine-1-carbothioamide]",3.13 ± 0.034,192 to 194,,
"COc1cccc(/C=N/NC(N)=S)n1 [Rx-4, 6-Methoxypyridine-2-yl methylene thiosemicarbazide]",4.21 ± 0.022,,,
"NC(=S)N/N=C/c1cccc(C(F)(F)F)n1 [Rx-5, 6-Trifluoromethyl pyridine-2-yl methylene hydrazine-1-carbothioamide]",4.93 ± 0.012,,,
"NC(=S)N/N=C/c1ccc(Cl)cn1 [Rx-6, 5-Chloropyridine-2-yl methylene hydrazinecarbothioamide]",1.07 ± 0.043,244 to 246,competitive,
"NC(=O)N/N=C/c1ccccn1 [Rx-7, 2-Pyridine-2-yl-methylene hydrazine carboxamide]",2.18 ± 0.058,,,
"Cc1cccc(/C=N/NC(N)=O)n1 [Rx-8, 6-Methylpyridine-2-yl methylene hydrazinecarboxamide]",3.41 ± 0.011,218 to 219,,
"NC(=O)N/N=C/c1cccc(Br)n1 [Rx-9, 6-Bromopyridine-2-yl methylene hydrazinecarboxamide]",14.49 ± 0.067,231 to 233,,
"COc1cccc(/C=N/NC(N)=O)n1 [Rx-10, 6-Methoxypyridine-2-yl methylene hydrazine carboxamide]",5.52 ± 0.072,193,,
"NC(=O)N/N=C/c1cccc(C(F)(F)F)n1 [Rx-11, 6-Trifluoromethyl pyridine-2-yl methylene hydrazine carboxamide]",5.96 ± 0.005,233 to 235,,
"NC(=O)N/N=C/c1ccc(Cl)cn1 [Rx-12, 5-Chloropyridine-2yl-methylene hydrazine carboxamide]",4.07 ± 0.003,221 to 223,,
"NC(N)=S [Thiourea, reference compound]",,,,18.93 ± 0.004
